What all share (experiment): Determination of Minimum Inhibitory Concentrations (MIC), agar dilution
What all share (format): cell-based

Experiment [1] relates to E. cloacae 1051E. As to conditions: Enterobacter cloacae. How it is done:
(§1) 1. Determination of Minimum Inhibitory Concentrations (MIC)
(§2) Serial two-fold dilutions of freshly prepared test solutions were made into Oxoid No. 1 Nutrient agar with or without added enrichment and poured into petri diches. Plates were inoculated with a multipoint inoculator with inoculum containing approximately […] of the organisms shown in the following Tables, all of which organisms are clinical isolates. The MIC, quoted in the Tables as µg/ml, was read after 18 hours incubation at 37°C as the lowest concentration which inhibited growth.

Experiment [2] relates to E. cloacae 1321E. The conditions noted are these: Enterobacter cloacae. Here is the method: as §1, §2
The subject of experiment [3] is E. coli 851E. The conditions noted are these: Escherichia coli. Here is the method:
as §1, §2

Experiment [4] has as its system H. influenzae 1184E. The conditions noted are these: Haemophilus influenzae. Here is the method:
as §1, §2

Experiment [5] deals with K. aerogenes 1522E. As to conditions: Klebsiella aerogenes. How it is done:
as §1, §2

Experiment [6] deals with Micrococcus Sp 1810E. As to conditions: SP1810E. Here is the method: as §1, §2
Experiment [7] relates to Pr. mirabilis 431E. As to conditions: Proteus mirabilis. How it is done: as §1, §2
The test system of experiment [8] is Staph.aureus 853E. The conditions noted are these: Staphylococcus aureus. How it is done: as §1, §2

≈ marks a conversion by molar mass, not a printed value. Read-outs that look alike come from different tables or passages of the source.

Consider `CC(=O)SCCC1=C(C(=O)[O-])N2C(=O)CC2S1.[K+]` (racemic) [Example 29, Potassium (5RS)-2-(2-acetylthioethyl)pen-2-em-3-carboxylate], for which the MIC in experiment [1] (1051E, 18 h) was 16 µg/mL; in experiment [2] (1321E, 18 h), 1 µg/mL; in experiment [3] (851E, 18 h) it was 1 µg/mL; in experiment [4] (1184E, 18 h) it was 8 µg/mL; in experiment [5] (1522E, 18 h) it was 2 µg/mL; in experiment [6] (Micrococcus, 18 h), below 0.1 µg/mL. Besides, the MIC is 1 µg/mL in experiment [7] (431E, 18 h) and below 0.1 µg/mL in experiment [8] (853E, 18 h).

Consider `CCOC(=S)SCCC1=C(C(=O)[O-])N2C(=O)CC2S1.[K+]` (racemic) [Example 36, Potassium (5RS)-2-(2-ethoxythiocarbonylthioethyl)pen-2-em-3-carboxylate], for which the MIC in experiment [1] (1051E, 18 h) is 62 µg/mL; in experiment [2] (1321E, 18 h), 16 µg/mL; in experiment [3] (851E, 18 h) it was 8 µg/mL; in experiment [4] (1184E, 18 h) it was 4 µg/mL; in experiment [5] (1522E, 18 h), 16 µg/mL; in experiment [6] (Micrococcus, 18 h) it was below 0.1 µg/mL. In addition, the MIC was 8 µg/mL in experiment [7] (431E, 18 h) and below 0.1 µg/mL in experiment [8] (853E, 18 h).

As for `CN(C)C(=S)SCCC1=C(C(=O)O)N2C(=O)CC2S1` (racemic) [Example 38, (5RS)-2-(2-N,N-Dimethylthiocarbamoylthioethyl)pen-2-em-3-carboxylic acid], the MIC is above 250 µg/mL in experiment [1] (E. cloacae 1051E, clinical isolate, Oxoid No. 1 Nutrient agar, read after 18 hours incubation at 37°C, read-out: MIC); 31 µg/mL (≈ 97.3 µM) in experiment [2] (E. cloacae 1321E, clinical isolate, Oxoid No. 1 Nutrient agar, read after 18 hours incubation at 37°C, read-out: MIC); 31 µg/mL (≈ 97.3 µM) in experiment [3] (E. coli 851E, clinical isolate, Oxoid No. 1 Nutrient agar, read after 18 hours incubation at 37°C, read-out: MIC); 2 µg/mL (≈ 6.28 µM) in experiment [4] (H. influenzae 1184E, clinical isolate, Oxoid No. 1 Nutrient agar, read after 18 hours incubation at 37°C, read-out: MIC); 31 µg/mL (≈ 97.3 µM) in experiment [5] (K. aerogenes 1522E, clinical isolate, Oxoid No. 1 Nutrient agar, read after 18 hours incubation at 37°C, read-out: MIC); below 0.1 µg/mL in experiment [6] (Micrococcus Sp 1810E, clinical isolate, Oxoid No. 1 Nutrient agar, read after 18 hours incubation at 37°C, read-out: MIC). In addition, the MIC is 16 µg/mL (≈ 50.2 µM) in experiment [7] (Pr. mirabilis 431E, clinical isolate, Oxoid No. 1 Nutrient agar, read after 18 hours incubation at 37°C, read-out: MIC) and below 0.1 µg/mL in experiment [8] (Staph.aureus 853E, clinical isolate, Oxoid No. 1 Nutrient agar, read after 18 hours incubation at 37°C, read-out: MIC).

These data come from EP0003892A1, “Beta-lactam compounds, processes for their production, compositions containing them and intermediates of use in their preparation” (GLAXO GROUP LIMITED, priority 1978, dated 1979).
